In brackets after ≈: the same amount, converted by molar mass. Like-named read-outs stand apart in the source and are kept apart here.
Legend:
[1] = system: BS: Bacillus substilis No. 10707; test: Antimicrobial activity by the agar dilution method (MIC); type: cell-based
Procedure: (§1) Antimicrobial activity was determined by the agar dilution method using a culture medium (pH 7) prepared by dissolving 3 g of Bacto-Tryptone (manufactured by Difco, Co.), 3 g of meat extract, 1 g of yeast extract, 1 g of glucose, and 16 g of agar in 1 l of water.

[2] = system: EC: Escherichia coli ATCC 26; test: as above; type: cell-based
Procedure: as §1

[3] = system: EH: Enterococcus hirae ATCC 10541; test: as above; type: cell-based; conditions: pH 7
Procedure: as §1

HeLa S3 cells = test: HeLa S3 Cell Growth Inhibition Test; type: cell-based; conditions: Homo sapiens, 72 hours incubation, Neutral Red
In short: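 HeLa S3 cells seeded overnight in MEM with 10% FBS, then exposed to compound for 72 h at 37 °C. Viable cells stained with Neutral Red, dye extracted, absorbance read at 550 nm; IC50 derived against untreated cells.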

[4] = system: SA: Staphylococcus aureus ATCC 6538P; test: Antimicrobial activity by the agar dilution method (MIC); type: cell-based; conditions: ATCC6538P
Procedure: as §1

[5] = system: KP: Klebisiella pneumoniae ATCC 10031; test: as above; type: cell-based
Procedure: as §1

[6] = system: Sarcoma 180 mouse solid tumor; test: Antitumor activity against Sarcoma 180 mouse solid tumor; type: in vivo, mouse (ddY); conditions: Sarcoma-180, iv, 168 h
Procedure: To a ddY mouse were intraperitoneally transplanted 5×10^6 sarcoma 180 cells. On the seventh day from the transplant, the cells were collected from the ascites, washed once with sterilized physiological saline, and then diluted with sterilized physiological saline to prepare a cell suspension having a concentration of 5×10^7 cells/mL. This suspension was transplanted in an amount of 0.01 mL to a subcutaneous part of the right axilla of each of male ddY mice each weighing 20±1 g.
A test compound was dissolved in physiological saline containing polyoxyethylene sorbitan monolaurate. At 24 hours after the tumor transplant, 0.2 mL of the solution was intravenously administered to the tail of each of a group of five mice.

[7] = Bacillus substilis No. 10707, agar dilution, pH 7, read-out: minimum inhibitory concentration (MIC), BS
[8] = ATCC26, Escherichia coli ATCC 26, agar dilution, pH 7, read-out: minimum inhibitory concentration (MIC), EC
[9] = HeLa S3, 72 h, HeLa S3, read-out: IC50, HeLa S3 cell growth inhibition
[10] = Staphylococcus aureus ATCC 6538P, agar dilution, pH 7, read-out: minimum inhibitory concentration (MIC), SA
[11] = Klebisiella pneumoniae ATCC 10031, agar dilution, pH 7, read-out: minimum inhibitory concentration (MIC), KP
[12] = Bacillus, pH 7, read-out: minimum inhibitory concentration (MIC), BS
[13] = HeLa S3, 72 h, read-out: IC50, HeLa S3 cell growth inhibition, HeLa S3
[14] = Staphylococcus aureus, pH 7, read-out: minimum inhibitory concentration (MIC), SA
[15] = read-out: T/C (tumor volume ratio treated/control)
[16] = pH 7, read-out: minimum inhibitory concentration (MIC), KP
[17] = Escherichia coli, ATCC26, pH 7, read-out: minimum inhibitory concentration (MIC), EC
[18] = HeLa S3, read-out: IC50, HeLa S3 cell growth inhibition
[19] = 16 mg/kg i.v. once, 24 hours after transplant, tumor volume on day 7, read-out: T/C (tumor volume ratio treated/control)

SMILES | MIC [1, 7] [µg/mL] | minimum inhibitory concentration (MIC), EH [3] [µg/mL] | MIC [4, 10] [µg/mL] | MIC [5, 11] [µg/mL] | MIC [1, 12] [µg/mL] | MIC [4, 14] [µg/mL] | MIC [5, 16] [µg/mL] | further results
COC(=O)NCC(=O)OCSC(=O)C(C)(O)C12CCC(C)=CC(O)C(=O)C=CC=Cc3csc(n3)C(C)N(C(=O)C1)[S+]2[O-] (stereo not shown) [Compound 17] | 0.65 (≈ 0.991 µM) | 1.3 (≈ 1.98 µM) | 0.65 (≈ 0.991 µM) | 0.65 (≈ 0.991 µM) | – | – | – | MIC [2, 8]: 42 µg/mL (≈ 64 µM); IC50 (HeLa S3 cells; [9]): 15 nM
COC(=O)NCC(=O)OCOC1C=C(C)CCC2(C(C)(O)C(=O)SCOC(=O)CNC(=O)OC)CC(=O)N(C(C)c3nc(cs3)C=CC=CC1=O)[S+]2[O-] (stereo not shown) [Compound 18] | 11 (≈ 13.7 µM) | 5.7 (≈ 7.12 µM) | 11 (≈ 13.7 µM) | 2.9 (≈ 3.62 µM) | – | – | – | IC50 (HeLa S3 cells; [9]): 150 nM; response vs control in vivo at 4 mg/kg ([6]; 4.0 mg/kg i.v. once, 24 hours after transplant, tumor volume on day 7, read-out: T/C (tumor volume ratio treated/control)): 38%
COC(=O)[C@H](CCC(=O)OCSC(=O)C(C)(O)C12CCC(C)=CC(O)C(=O)C=CC=Cc3csc(n3)C(C)N(C(=O)C1)[S+]2[O-])NC(=O)[C@@]12O[C@H]3COC(C)(C)O[C@H]3[C@@H]1OC(C)(C)O2 (stereo partly shown) [Compound 24] | – | 23 (≈ 24.5 µM) | – | – | 23 (≈ 24.5 µM) | 23 (≈ 24.5 µM) | 46 (≈ 48.9 µM) | IC50 (HeLa S3 cells; [13]): 550 nM; response vs control in vivo at 16 mg/kg [6, 15]: 12%
COCCOCCOCC(=O)OCSC(=O)C(C)(O)C12CCC(C)=CC(O)C(=O)C=CC=Cc3csc(n3)C(C)N(C(=O)C1)[S+]2[O-] (stereo not shown) [Compound 35] | 0.39 (≈ 0.556 µM) | 0.39 (≈ 0.556 µM) | 0.39 (≈ 0.556 µM) | 0.39 (≈ 0.556 µM) | – | – | – | MIC [2, 8]: 13 µg/mL (≈ 18.5 µM); IC50 (HeLa S3 cells; [9]): 22 nM; response vs control in vivo at 2 mg/kg ([6]; 2.0 mg/kg i.v. once, 24 hours after transplant, tumor volume on day 7, read-out: T/C (tumor volume ratio treated/control)): 44%
COC(=O)[C@H](CCC(=O)OCSC(=O)C(C)(O)C12CC/C(C)=C/C(O)C(=O)/C=C/C=C\c3csc(n3)C(C)N(C(=O)C1)[S+]2[O-])NC(=O)[C@@]12O[C@@H](CO)[C@@H](O)[C@@H]1OC(C)(C)O2 (stereo partly shown) [Compound 60] | – | 7.3 (≈ 8.11 µM) | – | – | 15 (≈ 16.7 µM) | 15 (≈ 16.7 µM) | 15 (≈ 16.7 µM) | IC50 (HeLa S3 cells; [13]): 550 nM; response vs control in vivo at 8 mg/kg [6, 15]: 31%
C/C1=C\C(O)C(=O)/C=C/C=C\c2csc(n2)C(C)N2C(=O)CC(C(C)(O)C(=O)SCOC(=O)CCc3ccc(O)cc3)(CC1)[S+]2[O-] (stereo not shown) [Compound 70] | – | 0.91 (≈ 1.32 µM) | – | – | 0.057 (≈ 0.0827 µM) | 0.91 (≈ 1.32 µM) | 0.91 (≈ 1.32 µM) | MIC [2, 17]: 29 µg/mL (≈ 42.1 µM); IC50 (HeLa S3 cells; [13]): 2.6 nM
COCOCc1oc(=O)oc1CSC(=O)C(C)(O)C12CC/C(C)=C/C(O)C(=O)/C=C/C=C\c3csc(n3)C(C)N(C(=O)C1)[S+]2[O-] (stereo not shown) [Compound 77] | 0.36 (≈ 0.527 µM) | 0.18 (≈ 0.264 µM) | 0.36 (≈ 0.527 µM) | 0.36 (≈ 0.527 µM) | – | – | – | MIC [2, 8]: 11 µg/mL (≈ 16.1 µM); IC50 (HeLa S3 cells; [9]): 7.7 nM; response vs control in vivo at 8 mg/kg ([6]; 8.0 mg/kg i.v. once, 24 hours after transplant, tumor volume on day 7, read-out: T/C (tumor volume ratio treated/control)): 36%
C/C1=C\C(OC2CCCCO2)C(=O)/C=C/C=C\c2csc(n2)C(C)N2C(=O)CC(C(C)(O)C(=O)SCc3oc(=O)oc3COC3C[C@H](O[Si](C)(C)C(C)(C)C)[C@@H](O[Si](C)(C)C(C)(C)C)[C@H](C)O3)(CC1)[S+]2[O-] (stereo partly shown) [Compound 80] | 0.42 (≈ 0.388 µM) | 3.4 (≈ 3.14 µM) | 3.4 (≈ 3.14 µM) | 27 (≈ 25 µM) | – | – | – | IC50 (HeLa S3 cells; [18]): 330 nM; response vs control in vivo at 16 mg/kg [6, 19]: 37%
CC[Si](CC)(CC)OC[C@H]1OC(OCc2oc(=O)oc2CSC(=O)C(C)(O)C23CC/C(C)=C/C(OC4CCCCO4)C(=O)/C=C/C=C\c4csc(n4)C(C)N(C(=O)C2)[S+]3[O-])C[C@@H](O[Si](CC)(CC)CC)[C@@H]1O[Si](CC)(CC)CC (stereo partly shown) [Compound 82] | – | 4.2 (≈ 3.47 µM) | 2.1 (≈ 1.73 µM) | 33 (≈ 27.2 µM) | – | – | – | IC50 (HeLa S3 cells; [18]): 800 nM; response vs control in vivo at 16 mg/kg [6, 19]: 36%
C/C1=C\C(OC2CCCCO2)C(=O)/C=C/C=C\c2csc(n2)C(C)N2C(=O)CC(C(C)(O)C(=O)SCc3oc(=O)oc3COC3C[C@@H](O)[C@H](O)[C@@H](CO)O3)(CC1)[S+]2[O-] (stereo partly shown) [Compound 83] | – | 0.59 (≈ 0.679 µM) | – | – | 0.037 (≈ 0.0426 µM) | 0.32 (≈ 0.368 µM) | 4.7 (≈ 5.41 µM) | MIC [2, 17]: 4.7 µg/mL (≈ 5.41 µM); IC50 (HeLa S3 cells; [13]): 11 nM
C/C1=C\C(O)C(=O)/C=C/C=C\c2csc(n2)C(C)N2C(=O)CC(C(C)(O)C(=O)SCc3oc(=O)oc3CO)(CC1)[S+]2[O-] (stereo not shown) [Compound 86] | – | 0.16 (≈ 0.25 µM) | – | – | 0.16 (≈ 0.25 µM) | 0.33 (≈ 0.517 µM) | 0.16 (≈ 0.25 µM) | MIC [2, 17]: 10 µg/mL (≈ 15.7 µM); IC50 (HeLa S3 cells; [13]): 610 nM
COCCOCC(=O)OCc1oc(=O)oc1CSC(=O)C(C)(O)C12CC/C(C)=C/C(OC3CCCCO3)C(=O)/C=C/C=C\c3csc(n3)C(C)N(C(=O)C1)[S+]2[O-] (stereo not shown) [Compound 100] | 0.041 (≈ 0.0489 µM) | 0.33 (≈ 0.393 µM) | 0.081 (≈ 0.0965 µM) | 0.65 (≈ 0.775 µM) | – | – | – | MIC [2, 8]: 2.6 µg/mL (≈ 3.1 µM); IC50 (HeLa S3 cells; [9]): 18 nM; response vs control in vivo at 16 mg/kg [6, 19]: 30%
C/C1=C\C(O)C(=O)/C=C/C=C\c2csc(n2)C(C)N2C(=O)CC(C(C)(O)C(=O)SCOC(=O)CCCNC(=O)C(C)(CO)CO)(CC1)[S+]2[O-] (stereo not shown) [Compound 139] | – | 12 (≈ 16.2 µM) | – | – | 12 (≈ 16.2 µM) | 25 (≈ 33.7 µM) | 25 (≈ 33.7 µM) | response vs control in vivo at 4 mg/kg [6, 15]: 33%
COC(=O)[C@H](CCC(=O)OCSC(=O)C(C)(O)C12CC/C(C)=C/C(O)C(=O)/C=C/C=C\c3csc(n3)C(C)N(C(=O)C1)[S+]2[O-])NC(=O)C1CCC(=O)N1 (stereo partly shown) [Compound 143] | – | 0.29 (≈ 0.365 µM) | – | – | 0.29 (≈ 0.365 µM) | 0.29 (≈ 0.365 µM) | 0.59 (≈ 0.742 µM) | MIC [2, 17]: 19 µg/mL (≈ 23.9 µM); response vs control in vivo at 8 mg/kg [6, 15]: 27%
C/C1=C\C(O)C(=O)/C=C/C=C\c2csc(n2)C(C)N2C(=O)CC(C(C)(O)C(=O)SCOC(=O)CCCNC(=O)[C@@H]3CCC(=O)N3)(CC1)[S+]2[O-] (stereo partly shown) [Compound 144] | – | 5.8 (≈ 7.87 µM) | – | – | 12 (≈ 16.3 µM) | 12 (≈ 16.3 µM) | 12 (≈ 16.3 µM) | response vs control in vivo at 8 mg/kg [6, 15]: 26%
C/C1=C\C(O)C(=O)/C=C/C=C\c2csc(n2)C(C)N2C(=O)CC(C(C)(O)C(=O)SCOC(=O)CCCN3CCCC3=O)(CC1)[S+]2[O-] (stereo not shown) [Compound 145] | – | 7.7 (≈ 11.1 µM) | – | – | 7.7 (≈ 11.1 µM) | 15 (≈ 21.6 µM) | 7.7 (≈ 11.1 µM) | response vs control in vivo at 4 mg/kg [6, 15]: 23%
C/C1=C\C(O)C(=O)/C=C/C=C\c2csc(n2)C(C)N2C(=O)CC(C(C)(O)C(=O)SCc3oc(=O)oc3COC(=O)CN(C)C)(CC1)[S+]2[O-] (stereo not shown) [Compound 158] | – | 0.33 (≈ 0.456 µM) | – | – | < 0.041 | 0.33 (≈ 0.456 µM) | 1.3 (≈ 1.8 µM) | response vs control in vivo at 32 mg/kg [6, 15]: 31%

From patent US5981558A, “DC107 derivatives” (Kyowa Hakko Kogyo Co., Ltd., priority 1996, dated 1999)
